Key:
human aromatase [1] = molecular target: T1, human aromatase (Homo sapiens, UniProt P11511); assay: Dual aromatase and steroid sulfatase activities in JEG-3 cells: aromatase readout; assay type: cell-based; settings: footnote c: dual aromatase and sulfatase activity, nd: not detected, read-out: Aromatase activity IC50 (nM) ± S.E.M.
T1 construct: The JEG-3 cell line, derived from a human placental choriocarcinoma, constitutively overexpresses human aromatase; endogenous in cells; host or cells: JEG-3 (human placental choriocarcinoma)
T1 sequence (P11511 1-503): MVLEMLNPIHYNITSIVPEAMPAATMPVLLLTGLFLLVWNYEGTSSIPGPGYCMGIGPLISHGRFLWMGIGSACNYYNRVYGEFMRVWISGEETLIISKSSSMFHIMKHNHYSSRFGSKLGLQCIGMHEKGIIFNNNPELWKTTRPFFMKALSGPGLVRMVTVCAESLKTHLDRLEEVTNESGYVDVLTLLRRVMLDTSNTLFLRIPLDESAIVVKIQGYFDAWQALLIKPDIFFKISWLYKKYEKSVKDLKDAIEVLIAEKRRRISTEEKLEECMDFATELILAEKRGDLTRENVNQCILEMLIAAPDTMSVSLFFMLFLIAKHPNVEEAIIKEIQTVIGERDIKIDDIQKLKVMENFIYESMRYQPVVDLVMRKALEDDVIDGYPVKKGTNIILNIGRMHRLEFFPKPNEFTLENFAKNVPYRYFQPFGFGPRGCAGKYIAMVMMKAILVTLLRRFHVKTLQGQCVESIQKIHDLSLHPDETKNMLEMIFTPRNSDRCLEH
Experimental: Assays were carried out with cells in logarithmic growth phase on 96-well microplates. 24 h before studies, cells were seeded in decomplemented fetal calf serum (dFCS) supplemented medium. The medium was removed 24 h later and cells were rinsed with PBS to eliminate any trace of dFCS. Then, ^3H-E1S was added in dFCS free medium, followed by test compounds at concentrations ranging from 10^−12 M to 10^−5 M. After 4 h of treatment, the medium was transferred into 96-deep-well microplates and centrifuged at 200×g for 10 min to pellet cells before toluene extraction. A fraction of the medium was used for toluene extraction in order to separate the conjugated substrate from non-conjugated products. The radioactivity in the toluene phase was measured by liquid scintillation counting. […] Finally, estrone sulfatase activity was expressed in pmoles of ^3H-E1+^3H-E2 formed/4 hours/mg DNA and estrone sulfatase inhibition as a percentage of control activity without inhibitor.
In order to evaluate the inhibitory potency of DASI compounds in parallel on both human aromatase and steroid sulfatase activities, a new in vitro model was set up using JEG-3 cells. The experimental conditions of the steroid sulfatase model previously described was adopted with slight modifications: the presence of the two substrates ^3-HE1S and 1β-^3H-androstenedione into the medium and an incubation period of 2 hours. Results were expressed in pmoles of product formed (^3H-E1+^3H-E2 or ^3H2O)/2 hours/mg DNA (Table 1).

human aromatase [2] = molecular target: T1, human aromatase; assay: Aromatase activity alone, tritiated water method in JEG-3 cells; assay type: cell-based; settings: footnote a: aromatase activity alone, nd: not detected, read-out: Aromatase activity IC50 (nM) ± S.E.M.
Experimental: The JEG-3 cell line, derived from a human placental choriocarcinoma, constitutively overexpresses human aromatase and represents a relevant model for assaying putative aromatase inhibitors in vitro. Aromatase activity was determined by the tritiated water method. In brief, cells were first seeded into 96-well microplates in decomplemented fetal calf serum (dFCS) supplemented medium. 24 hours later, cells were rinsed and fresh medium containing 1β-^3H-androstenedione as aromatase substrate was added together with test compounds at concentrations ranging from 10^−12 M to 10^−5 M. After 2 hours of incubation, a fraction of the medium was transferred to homologous new 96-well microplates and a dextran-coated charcoal solution was added to each well. Following standing on ice for 10 minutes, microplates were centrifuged (1500 g; 4° C.). All steroids, including the radioactive substrate and the newly biosynthesized estrogens, were adsorbed on charcoal; only ^3H-water specifically formed during aromatisation of 1β-^3H-androstenedione, remained in the supernatant. The radioactivity in the supernatant was measured by liquid scintillation counting. In parallel, cell solubilization was performed in ethylenediamine tetraacetate solution. […] Finally, aromatase activity was expressed in fmoles of ^3H-water formed/2 hours/μg DNA and aromatase inhibition as a percentage of control activity without inhibitor.

Row | SMILES | melting point [°C] | IC50 (human aromatase [1]) [nM] | IC50 (human aromatase [2]) [nM]
1 | COc1ccc(CN(c2ccc(C#N)cc2)n2ccnc2)cc1C(=O)O [Ex 21, 5-{[N-(4-cyanophenyl)-N-(1H-imidazol-1-yl)amino]methyl}-2-methoxybenzoic acid] | 187 | – | –
2 | N#Cc1ccc(N(Cc2c(F)c(F)c(O)c(F)c2F)n2ccnc2)cc1 [Ex 15, 4-[N-(2,3,5,6-tetrafluoro-4-hydroxyphenylmethyl)-N-(1H-imidazol-1-yl)amino]benzonitrile] | 243 | – | –
3 | N#Cc1ccc(N(CCOc2ccc(O)cc2)n2ccnc2)cc1 [Ex 36, 4-{N-[2-(4-hydroxyphenoxy)ethyl]-N-(1H-imidazol-1-yl)amino}benzonitrile] | 188 | 0.61 ± 0.21 | –
4 | COc1cc(CN(c2ccc(C#N)cc2)n2ccnc2)ccc1O [Ex 14, 4-[N-(4-hydroxy-3-methoxyphenylmethyl)-N-(1H-imidazol-1-yl)amino]benzonitrile] | 215 | – | 0.21 ± 0.05
5 | COc1ccc2c(CC(=O)N(c3ccc(C#N)cc3)n3ccnc3)csc2c1 [Ex 29, N-(4-cyanophenyl)-N-(1H-imidazol-1-yl)-2-(6-methoxy-benzothien-3-yl)acetamide] | 104 | – | –
6 | N#Cc1ccc(N(n2ccnc2)S(=O)(=O)c2ccc(O)cc2)cc1 [Ex 37, N-(4-cyanophenyl)-N-(1H-imidazol-1-yl)-4-hydroxybenzensulfonamide] | 248 | 52 ± 9.6 | –
7 | N#Cc1ccc(N(c2ccc(NS(N)(=O)=O)cc2)n2ccnc2)cc1 [Ex 49, N-{4-[N-(4-cyanophenyl)-N-(1H-imidazol-1-yl)amino]phenyl}sulfamide] | 121 | – | –
8 | N#Cc1ccc(N(Cc2ccc3c(c2)CNS(=O)(=O)O3)n2ccnc2)cc1 [Ex 61, 4-[N-[(2,2-dioxido-3,4-dihydro-1,2,3-benzoxathiazin-6-yl)methyl]-N-(1H-imidazol-1-yl)amino]benzonitrile] | – | – | 1.06 ± 0.21
9 | N#Cc1ccc(N(Cc2ccc(O)c(N)c2)n2ccnc2)cc1 [Ex 35, 4-[N-(3-amino-4-hydroxy-phenylmethyl)-N-(1H-imidazol-1-yl)amino]benzonitrile] | – | 2.2 ± 0.7 | –
10 | N#Cc1ccc(N(Cc2cc3ccc(OS(N)(=O)=O)cc3s2)n2ccnc2)cc1 [Ex 59, Sulfamic acid 2-{[N-(4-cyanophenyl)-N-(1H-imidazol-1yl)amino]methyl}-benzothien-6-yl ester] | 178 | – | –
11 | N#Cc1ccc(N(Cc2ccc(O)c(C=O)c2)n2ccnc2)cc1 [Ex 16, 4-[N-(3-formyl-4-hydroxyphenylmethyl)-N-(1H-imidazol-1-yl)amino]benzonitrile] | 160 | – | –
12 | N#Cc1ccc(N(Cc2ccc(O)cc2)n2ccnc2)cc1 [Ex 11, 4-[N-(4-hydroxyphenylmethyl)-N-(1H-imidazol-1-yl)amino]benzonitrile] | – | – | 0.17 ± 0.01
13 | COc1ccc2c(CN(c3ccc(C#N)cc3)n3ccnc3)csc2c1 [Ex 30, 4-{N-[1H-imidazol-1-yl]-N-[(6-methoxy-benzothien-3-yl)methyl]amino}benzonitrile] | – | 0.06 | –
14 | N#Cc1ccc(N(C(=O)Cc2ccc(F)cc2)n2ccnc2)cc1 [Ex 24, N-(1H-imidazol-1-yl)-N-(4-cyanophenyl)-2-(4-fluorophenyl)acetamide] | 131 | – | –
15 | N#Cc1ccc(N(Cc2ccc(S(N)(=O)=O)cc2)n2ccnc2)cc1 [Ex 19, 4-{[N-(4-cyanophenyl)-N-(1H-imidazol-1-yl)amino]methyl}benzene sulfonamide] | 150 | – | –
16 | N#Cc1ccc(N(Cc2cc3ccc(O)cc3s2)n2ccnc2)cc1 [Ex 39, 4-[N-[(6-hydroxy-benzothien-2-yl)methyl]-N-(1H-imidazol-1-yl)amino]benzonitrile] | 230 | – | –
17 | N#Cc1ccc(N(Cc2ccc(Cl)nc2)n2ccnc2)cc1 [Ex 18, 4-{N-[(6-chloropyridin-3-yl)methyl]-N-(1H-imidazol-1-yl)amino}benzonitrile] | 156 | – | –
18 | N#Cc1ccc(N(C(=O)CCc2ccc(O)cc2)n2ccnc2)cc1 [Ex 26, N-(4-cyanophenyl)-3-(4-hydroxyphenyl)-N-(1H-imidazol-1-yl)propanamide] | 172 | – | 50.6
19 | N#Cc1ccc(N(Cc2ccc(OS(N)(=O)=O)cc2NS(N)(=O)=O)n2ccnc2)cc1 [Ex 54, Sulfamic acid 3-(aminosulfonyl)amino-4-{[N-(4-cyanophenyl)-N-(1H-imidazol-1yl)amino]methyl}phenyl ester] | 197 | – | –
20 | N#Cc1ccc(N(C(=O)c2cc3cc(N)ccc3s2)n2ccnc2)cc1 [Ex 41, 5-Amino-[N-(4-cyanophenyl)-N-(1H-imidazol-1-yl)]-benzothiophene-2-carboxamide] | – | 4.3 | –
21 | N#Cc1ccc(N(Cc2ccc(O)c([N+](=O)[O-])c2)n2ccnc2)cc1 [Ex 20, 4-[N-(4-hydroxy-3-nitrophenylmethyl)-N-(1H-imidazol-1-yl)amino]benzonitrile] | 205 | – | 0.3
22 | N#Cc1ccc(N(C(=O)c2ccc(Cl)nc2)n2ccnc2)cc1 [Ex 23, 6-chloro-N-(4-cyanophenyl)-N-(1H-imidazol-1-yl)nicotinamide] | 132 | – | –
23 | N#Cc1ccc(N(Cc2csc3cc(OS(N)(=O)=O)ccc23)n2ccnc2)cc1 [Ex 58, Sulfamic acid 3-{[N-(4-cyanophenyl)-N-(1H-imidazol-1yl)amino]methyl}-benzothien-6-yl ester] | 193 | – | –
24 | N#Cc1ccc(N(Cc2ccc(O)c(Cl)c2)n2ccnc2)cc1 [Ex 12, 4-[N-(3-chloro-4-hydroxyphenylmethyl)-N-(1H-imidazol-1-yl)amino]benzonitrile] | 195 | – | –
25 | N#Cc1ccc(N(Cc2ccc(O)c(Br)c2)n2ccnc2)cc1 [Ex 13, 4-[N-(3-bromo-4-hydroxyphenylmethyl)-N-(1H-imidazol-1-yl)amino]benzonitrile] | 198 | 0.05 ± 0.02 | 0.17 ± 0.03
26 | N#Cc1ccc(N(c2ccc(N)cc2)n2ccnc2)cc1 [Ex 40, 4-[N-(4-aminophenyl)-N-(1H-imidazol-1-yl)amino]benzonitrile] | – | – | 0.67 ± 0.1
27 | N#Cc1ccc(N(c2ccc([N+](=O)[O-])cc2)n2ccnc2)cc1 [Ex 22, 4-[N-(1H-imidazol-1-yl)-N-(4-nitrophenyl)amino]benzonitrile] | – | – | 0.32 ± 0.4
28 | N#Cc1ccc(N(C(=O)Cc2csc3cc(O)ccc23)n2ccnc2)cc1 [Ex 34, N-(4-cyanophenyl)-N-(1H-imidazol-1-yl)-2-(6-hydroxy-benzothien-3-yl)acetamide] | 179 | – | –
29 | N#Cc1ccc(N(C2=CS(=O)(=O)c3cc(OS(N)(=O)=O)ccc32)n2ccnc2)cc1 [Ex 56, Sulfamic acid 3-[N-(4-cyanophenyl)-N-(1H-imidazol-1yl)amino]-1,1-dioxido-benzothien-6-yl ester] | 172 | – | –
30 | N#Cc1ccc(N(Cc2ccc(O)c(C(=O)O)c2)n2ccnc2)cc1 [Ex 62, 5-{[N-(4-cyanophenyl)-N-(1H-imidazol-1-yl)amino]methyl}-2-hydroxybenzoic acid] | – | 81.8 | –

Reference: patent publication US8476455B2, “1-N-phenyl-amino-1h-imidazole derivatives and pharmaceutical compositions containing them” (Laboratoire Theramex, priority 2003, dated 2013)
